Values of other authors as cited in patent US12297161B2, “Process for making sarecycline hydrochloride” (PARATEK PHARMACEUTICALS, INC., priority 2018, dated 2025).

Columns and labels:
[1] = in vivo
[2] = test system: aerobic Gram-negative gastrointestinal (GI) organisms; conditions: compared with minocycline and doxycycline

CON(C)Cc1ccc(O)c2c1C[C@H]1C[C@H]3[C@H](N(C)C)C(O)=C(C(N)=O)C(=O)[C@@]3(O)C(O)=C1C2=O [Sarecycline, (4S, 4aS, 5aR, 12aS)-4-dimethylamino-3, 10, 12, 12a-tetrahydroxy-7-[(methoxy (methyl)amino)-methyl]-1, 11-dioxo-1,4,4a, 5,5a, 6, 11, 12a-octahydro-naphthacene-2-carboxylic acid amide]
inflammatory lesions of moderate to severe acne vulgaris [1]: reduce inflammatory lesions | antibacterial activity against aerobic Gram-negative gastrointestinal (GI) organisms [2]: more limited activity against aerobic Gram-negative gastrointestinal (GI) organisms than minocycline and doxycycline
